{"source": "patent US11806328B2", "about": "“Metabolic therapy for wound healing” (University of South Florida, priority 2013, dated 2023)", "key": {"[1]": {"test_system": "HDFs", "assay": "proliferation of HDFs", "type": "cell-based, human"}, "[2]": {"test_system": "Young and aged HDFs", "assay": "scratch migration assay", "type": "cell-based, human", "details": "for migrated cells (Dapi staining) versus untreated control: 5 mM BHB 72 hours, 18 hours after scratch", "method": "Young and aged HDFs were grown to confluence in 0.2% FBS 5 mM glucose DMEM media, cells were treated with or without the presence of 5 mM BHB for 72 hours, cells were scratched with 200 uL yellow pipette tip. After 18 hours, migrated cells were counted using Dapi staining."}, "[3]": {"test_system": "Primary human dermal fibroblasts (HDFs)", "assay": "ROS production (DHE cytosolic, MitoSOX Red mitochondrial) in stressed primary human dermal fibroblasts", "type": "cell-based", "details": "for decrease of cytosolic ROS production (DHE) / reduction of mitochondrial ROS production (MitoSOX Red): 5 mM BHB 72 hours, then 100 μM tert-butyl-hydrogen peroxide 3 hrs", "method": "Primary human dermal fibroblasts (HDFs, passaged 2-8) from young and aged donors (24 to 88 years) were incubated in the absence or presence of BHB for 72 hours prior to stress with 100 μM tert-buytl-hydrogen peroxide for 3 hours. ROS production was measured fluorescently with dihydroethidium (DHE, cytosolic) and MitoSOX Red (mitochondrial) in triplicate, N=6. In the cytosol, aged HDFs produced 28% (p=<0.001)) more ROS basally compared to their young counterparts. When incubated in BHB for 72 hours, ROS production in the young HDFs decreased by 40% (p=<0.0001) and by 41% (p=<0.0001) in the aged. In the mitochondria, aged HDFs produced 27% (p=<0.0001) more ROS at baseline than the young HDFs, consistent with observations in cytosol. […] As such, ketone supplementation is useful against redox stress and augments wound healing, shifting redox homeostasis in HDFs, especially in the elderly. Primary human dermal fibroblasts (HDFs, passaged 2-8) from young and aged donors (24 to 88 years) were incubated in the absence or presence of 5 mM beta-hydroxybutyrate (BHB) for 72 hours. To simulate a wound environment, the cells were then stressed with 100 μM tert-butyl-hydrogen peroxide for 3 hrs. ROS production was measured fluorescently with dihydroethidium (DHE, cytosolic) and Mitosox Red (mitochondrial) in triplicate, N=6. In the cytosol, seen in FIG. 2(A), aged HDFs produced 25% (p=0.003) more ROS basally compared to their young counterparts. This is consistent with the knowledge that aged cells have less antioxidants to mitigate the ROS production in a stressed environment. When incubated in 5 mM BHB for 72 hours, young HDFs ROS production decreased by 40% (p=<0.0001) and aged ROS production decreased by 41% (p=<0.0001). […] When incubated in BHB, ROS production was reduced in the young by 29% (p<0.0001) and in the aged by 51% (p<0.0001) compared to the controls. […] Significance calculated using one-way ANOVA and t-tests on Prism 6 software."}}, "data": [{"smiles": "CC(O)CC(=O)O", "note": "(stereo not drawn) [BHB, beta-hydroxybutyrate]", "values": [{"measurement": "proliferation", "setting": "[1]", "result": "did not significantly change proliferation"}, {"measurement": "migrated cells (Dapi staining) versus untreated control", "setting": "[2]; aged HDFs", "result": "migrated significantly more"}, {"measurement": "migration", "setting": "[2]; both young and aged HDFs, in words", "result": "did increase migration"}, {"measurement": "migrated cells (Dapi staining) versus untreated control", "setting": "[2]; young HDFs", "result": "migrated significantly more"}, {"measurement": "decrease of cytosolic ROS production (DHE)", "setting": "[3]; aged HDFs", "result": 41, "unit": "%"}, {"measurement": "reduction of mitochondrial ROS production (MitoSOX Red)", "setting": "[3]; aged HDFs", "result": 51, "unit": "%"}, {"measurement": "decrease of cytosolic ROS production (DHE)", "setting": "[3]; young HDFs", "result": 40, "unit": "%"}, {"measurement": "reduction of mitochondrial ROS production (MitoSOX Red)", "setting": "[3]; young HDFs", "result": 29, "unit": "%"}, {"measurement": "cytosolic and mitochondrial ROS production", "setting": "[3]; young and aged primary human dermal fibroblasts, in words", "result": "reduces cytosolic and mitochondrial ROS production"}]}]}
